Data from PMC6478823, “A suite of phenotypic assays to ensure pipeline diversity when prioritizing drug-like Cryptosporidium growth inhibitors” (Nature Communications, 2019).
“And” between values parts separate entries of the source, which are not always exact repeats. Identical values can stand only once.

Legend:
[1] = system: C. parvum; assay: DNA replication assay (EdU incorporation); format: cell-based, Cryptosporidium parvum; details: compound at EC90; for DNA Synthesis Assay: Mean % Inhibition of EdU-labeling (normalized to parasite numbers), Average: average of replicates; for DNA Synthesis Assay: Mean % Inhibition of EdU-labeling (normalized to parasite numbers), Replicate 1: single replicate 1; for DNA Synthesis Assay: Mean % Inhibition of EdU-labeling (normalized to parasite numbers), Replicate 2: single replicate 2; for DNA Synthesis Assay: Mean % Inhibition of EdU-labeling (normalized to parasite numbers), Replicate 3: single replicate 3; for DNA Synthesis Assay: Mean % Inhibition of EdU-labeling (normalized to parasite numbers), Replicate 4: single replicate 4; for DNA Synthesis Assay: Mean % Inhibition of EdU-labeling (normalized to parasite numbers), Replicate 5: single replicate 5
[2] = system: C. parvum DMC1 expression; assay: Sexual differentiation assay (DMC1 expression); format: cell-based, Cryptosporidium parvum; details: for Asexual to sexual differentiation: Mean % DMC1 inhibition (normalized to host nuclei), Average: average of replicates; for Asexual to sexual differentiation: Mean % DMC1 inhibition (normalized to host nuclei), Replicate 1a: single replicate 1; for Asexual to sexual differentiation: Mean % DMC1 inhibition (normalized to host nuclei), Replicate 2a: single replicate 2; for 48 - 72 h DMC1 (asexual to sexual conversion): Mean % DMC1 inhibition (normalized to host nuclei): replicates 1-3 in separate columns; for Asexual to sexual differentiation: Mean % DMC1 inhibition (normalized to host nuclei), Replicate 3a: single replicate 3
Excerpt: We utilized DMC1 as a marker of C. parvum sexual development, and used the anti-DMC1 monoclonal antibody to develop a moderate-throughput high-content microscopy assay for characterizing anticryptosporidial compounds (Fig. 6a). […] Therefore, in order to enable numerical comparison of the ability of compounds to block sexual development with moderate throughput, we adopted a strategy of reporting the percent inhibition of DMC1 expression by the previously determined EC90 of each compound in the standard asexual development assay (Fig. 6c and Supplementary Table 2).
Fig. 6 Assay to measure asexual-to-sexual-stage conversion. a Schematic of the experimental approach. […] For b and c the mean and SD combined from at least two biological replicates with four technical replicates per experiment are shown. […] At given time points post-infection, infected cells were washed 3 times with PBS containing 111 mM of D-galactose, fixed for 15 min at room temperature with 4% paraformaldehyde in PBS, and permeabilized with 0.25% triton X-100 in PBS for 10 min at 37 °C. Cells were then washed 3 times with PBS and blocked at least overnight at 4 °C with 1% BSA in PBS (blocking buffer). Cells were stained with monoclonal antibody (1H10G7), either neat culture supernatant or 12.8 µg/mL of purified IgG in blocking buffer for 1 h at 37 °C, followed by 2 washes with PBS. Cells were then co-stained with a 1:500 dilution (4 µg/mL) of Alexa Fluor 568 goat anti-mouse IgG (Invitrogen, catalog# A-11004) and 1.33 µg/mL fluorescein-labeled Vicia villosa lectin (Vector Laboratories, catalog# FL-1231) diluted in blocking buffer for 1 h at 37 °C. Stains were then removed and 0.09 mM Hoechst 33258 (AnaSpec, catalog# AS-83219) also diluted in blocking buffer was added for another 15 min at 37 °C, followed by 2 PBS washes and imaging on a Nikon Eclipse Ti2000 epifluorescence microscope run with NIS-Elements Advanced Research software (Nikon, USA) and equipped with an EXi blue fluorescent microscopy camera (QImaging, Canada). For enumerating parasites, tiled 2 × 2 images with 15% overlapping edges were taken using a 40 × dry objective (0.7 NA), and for finer details, Z stack images were acquired using a 60 × oil objective (1.4 NA). Lectin positive cells in focus were first counted, followed by DMC1.
For compound dose-response studies, the same assay was performed in 384-well plates and imaged using a 20 × dry objective (NA = 0.45). Tiled 4 × 4 to 6 × 6 images were taken. Images were analyzed using ImageJ software and the custom macro provided in Supplementary Method 2.

[3] = compound at asexual EC90, 48-72 h

SMILES	DNA Synthesis Assay: Mean % Inhibition of EdU-labeling (normalized to parasite numbers), Average [1] [%]	DNA Synthesis Assay: Mean % Inhibition of EdU-labeling (normalized to parasite numbers), Replicate 1 [1] [%]	DNA Synthesis Assay: Mean % Inhibition of EdU-labeling (normalized to parasite numbers), Replicate 2 [1] [%]	DNA Synthesis Assay: Mean % Inhibition of EdU-labeling (normalized to parasite numbers), Replicate 3 [1] [%]	DNA Synthesis Assay: Mean % Inhibition of EdU-labeling (normalized to parasite numbers), Replicate 4 [1] [%]	Asexual to sexual differentiation: Mean % DMC1 inhibition (normalized to host nuclei), Average [2, 3] [%]	Asexual to sexual differentiation: Mean % DMC1 inhibition (normalized to host nuclei), Replicate 1a [2, 3] [%]	Asexual to sexual differentiation: Mean % DMC1 inhibition (normalized to host nuclei), Replicate 2a [2, 3] [%]	Asexual to sexual differentiation: Mean % DMC1 inhibition (normalized to host nuclei), Replicate 3a [2, 3] [%]	further results
CC(C)/N=c1\cc2n(-c3ccc(Cl)cc3)c3ccccc3nc-2cc1Nc1ccc(Cl)cc1 [Clofazimine]	88.58	99.92	100.00	87.22	73.51	89.18	91.44	86.93	–	DNA Synthesis Assay: Mean % Inhibition of EdU-labeling (normalized to parasite numbers), Replicate 5 [1]: 82.28%
O=C(Nc1ccc(Cl)cc1)N1CCN(c2ccc3nncn3n2)CC1 [D-1]	23.98	20.68	7.95	36.52	30.78	83.01	87.55	90.87	72.73	48 - 72 h DMC1 (asexual to sexual conversion): Mean % DMC1 inhibition (normalized to host nuclei) ([2]; D-1 at log conc (µM) 0.16): -9.83% and -22.30% and 31.77%; 48 - 72 h DMC1 (asexual to sexual conversion): Mean % DMC1 inhibition (normalized to host nuclei) ([2]; D-1 at log conc (µM) 0.46): 54.19% and 44.15% and 54.54%; 48 - 72 h DMC1 (asexual to sexual conversion): Mean % DMC1 inhibition (normalized to host nuclei) ([2]; D-1 at log conc (µM) 0.58): 71.57% and 53.72% and 69.21%; 48 - 72 h DMC1 (asexual to sexual conversion): Mean % DMC1 inhibition (normalized to host nuclei) ([2]; D-1 at log conc (µM) 0.71): 84.32%; 48 - 72 h DMC1 (asexual to sexual conversion): Mean % DMC1 inhibition (normalized to host nuclei) ([2]; D-1 at log conc (µM) 1.18): 94.93% and 94.90% and 95.67%; 48 - 72 h DMC1 (asexual to sexual conversion): Mean % DMC1 inhibition (normalized to host nuclei) ([2]; D-1 at log conc (µM) 1.66): 95.75% and 98.23% and 93.36%; 48 - 72 h DMC1 (asexual to sexual conversion): Mean % DMC1 inhibition (normalized to host nuclei) ([2]; D-1 at log conc (µM) -0.14): 2.15% and -53.03% and -30.95%; 48 - 72 h DMC1 (asexual to sexual conversion): Mean % DMC1 inhibition (normalized to host nuclei) ([2]; D-1 at log conc (µM) -0.62): -16.25% and -49.91% and -40.61%; 48 - 72 h DMC1 (asexual to sexual conversion): Mean % DMC1 inhibition (normalized to host nuclei) ([2]; D-1 at log conc (µM) -1.10): -18.85% and -40.36% and -14.22%; activity in the DMC1 (sexual development) assay relative to asexual assay ([2]; compound added at 48 h, read at 72 h, result in words): equal potency before and after 48 h; Asexual to sexual differentiation: Mean % DMC1 inhibition (normalized to host nuclei), Replicate 4a ([2]; compound at asexual EC90, 48-72 h, single replicate 4): 66.31%; Asexual to sexual differentiation: Mean % DMC1 inhibition (normalized to host nuclei), Replicate 5a ([2]; compound at asexual EC90, 48-72 h, single replicate 5): 89.27%; Asexual to sexual differentiation: Mean % DMC1 inhibition (normalized to host nuclei), Replicate 6a ([2]; compound at asexual EC90, 48-72 h, single replicate 6): 91.32%; EC50 ([2]; inhibition of DMC1 expression from 48 to 72 h, range in brackets, read-out: 48 − 72 h DMC1 (asexual to sexual conversion): EC50): 2400 nM
O=C(Nc1ccc(Cl)c(Cl)c1)N1CCN(c2ccc3nncn3n2)CC1 [D-28]	3.38	14.86	-8.10	–	–	81.40	86.90	86.80	70.51	–
CN(C)S(=O)(=O)c1ccc(C(=O)N2CCN(c3ccc4nncn4n3)CC2)cc1 [D-44]	12.07	29.16	10.90	-3.84	–	74.35	86.32	62.37	–	–
CC(=O)O[C@@]12CO[C@@H]1C[C@H](O)[C@@]1(C)C(=O)[C@H](O)C3=C(C)[C@@H](OC(=O)[C@H](O)[C@@H](NC(=O)OC(C)(C)C)c4ccccc4)C[C@@](O)([C@@H](OC(=O)c4ccccc4)[C@H]21)C3(C)C [Docetaxel]	16.66	33.42	-0.10	–	–	37.07	34.13	40.00	–	–
O=c1[nH]c(=O)n([C@H]2C[C@H](O)[C@@H](CO)O2)cc1F [Floxuridine]	20.42	15.13	27.54	-10.47	28.26	-7.53	-14.02	-1.05	–	DNA Synthesis Assay: Mean % Inhibition of EdU-labeling (normalized to parasite numbers), Replicate 5 [1]: 37.17%; DNA Synthesis Assay: Mean % Inhibition of EdU-labeling (normalized to parasite numbers), Replicate 6 ([1]; single replicate 6): 24.87%; DNA synthesis ([1]; yes/no grouping by phenotypic assay result): no
CN(C)c1ccc(C(=C2C=CC(=[N+](C)C)C=C2)c2ccc(N(C)C)cc2)cc1 [Gentian Violet]	47.40	62.13	74.23	5.82	–	34.34	8.16	38.90	55.96	–
O=C(CC1NCCCC1O)Cn1cnc2cc(Br)c(Cl)cc2c1=O (stereo not shown) [Halofuginone]	88.20	85.31	91.09	–	–	68.25	51.29	73.88	79.59	–
CCC(C)n1ncn(-c2ccc(N3CCN(c4ccc(OCC5COC(Cn6cncn6)(c6ccc(Cl)cc6Cl)O5)cc4)CC3)cc2)c1=O (stereo not shown) [Itraconazole]	-4.89	6.01	-18.49	-2.19	–	63.93	87.85	40.00	–	–
